± gives the standard deviation of the averaged measurements.
Columns and labels:
U-2 OS [1] = experiment: cell painting activity score (Mahalanobis distance from DMSO wells); higher = stronger morphological phenotype; settings: 24 h
Experimental: (§1)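 Cell painting in U-2 OS cells (384-well, about 1,500 cells per well), compound exposure 24 h, usually six 2-fold concentrations from 20 to 0.625 uM (some compounds higher or lower). Relative cell count is the cell number per well relative to DMSO wells. Activity score is the Mahalanobis distance of the morphological profile from DMSO control wells. Mean of four technical replicate plates.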

U-2 OS [2] = experiment: relative cell count vs DMSO (cell painting) (fraction of DMSO control); higher = more cells remaining (less cytotoxic); settings: 24 h
Experimental: as §1

U-2 OS [3] = experiment: AUC of culture confluence over time (live-cell imaging) (AUC (confluence % x time)); higher = more confluent culture (less growth inhibition)
Experimental: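 Live-cell Incucyte imaging of U-2 OS cells in F-12K medium. Compounds were tested mostly at 5, 10 and 20 uM, and cells were imaged every 4 h for up to 60 h. Value is the area under the curve of phase-contrast confluence over time.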

| Compound | cell painting activity score (U-2 OS [1]; 0.625 µM) | cell painting activity score (U-2 OS [1]; 1.25 µM) | cell painting activity score (U-2 OS [1]; 2.5 µM) | cell painting activity score (U-2 OS [1]; 5 µM) | cell painting activity score (U-2 OS [1]; 10 µM) | cell painting activity score (U-2 OS [1]; 20 µM) | relative cell count (U-2 OS [2]; 0.625 µM) | relative cell count (U-2 OS [2]; 1.25 µM) | relative cell count (U-2 OS [2]; 2.5 µM) | relative cell count (U-2 OS [2]; 5 µM) | relative cell count (U-2 OS [2]; 10 µM) | relative cell count (U-2 OS [2]; 20 µM) | AUC of culture confluence over time (U-2 OS [3]; 5 µM) | AUC of culture confluence over time (U-2 OS [3]; 10 µM) | AUC of culture confluence over time (U-2 OS [3]; 20 µM) | cell painting activity score (U-2 OS [1]; 0.019532 µM) | cell painting activity score (U-2 OS [1]; 0.07812 µM) | cell painting activity score (U-2 OS [1]; 0.3124 µM) | relative cell count (U-2 OS [2]; 0.019532 µM) | relative cell count (U-2 OS [2]; 0.07812 µM) | relative cell count (U-2 OS [2]; 0.3124 µM) | AUC of culture confluence over time (U-2 OS [3]; 1.25 µM) |
| --- | --- | --- | --- | --- | --- | --- | --- | --- | --- | --- | --- | --- | --- | --- | --- | --- | --- | --- | --- | --- | --- | --- |
| Cc1[nH]c2ccccc2c1CCNCc1ccc(/C=C/C(=O)NO)cc1 | 16.3 | 16 | 15.9 | 15.3 | 13.8 | 16.2 | 0.494 | 0.472 | 0.445 | 0.466 | 0.474 | 0.419 | 16.7 | 19.5 | 21 | – | – | – | – | – | – | – |
| CNC(=O)c1cc(Oc2ccc(NC(=O)Nc3ccc(Cl)c(C(F)(F)F)c3)cc2)ccn1 | 10.7 | 11.4 | 10.3 | 12.4 | 9.94 | 10.5 | 1.02 | 0.956 | 0.971 | 0.978 | 0.705 | 0.348 | 50.1 | 29.6 | 15.6 | – | – | – | – | – | – | – |
| CC1(C)[C@@H](O[C@H]2O[C@H](C(=O)O)[C@@H](O)[C@H](O)[C@H]2O[C@@H]2O[C@H](C(=O)O)[C@@H](O)[C@H](O)[C@H]2O)CC[C@]2(C)[C@H]3C(=O)C=C4[C@@H]5C[C@@](C)(C(=O)O)CC[C@]5(C)CC[C@@]4(C)[C@]3(C)CC[C@@H]12.N | 4.09 | 5.25 | 5.85 | 3.67 | 3.06 | 3.66 | 1 | 0.993 | 0.972 | 0.982 | 1 | 1.03 | 50.8 | 48.2 | 51 | – | – | – | – | – | – | – |
| C=C1[C@@H](C)[C@H]2[C@H](Cc3ccccc3)NC(=O)[C@]23OC(=O)/C=C/[C@H](O)CCC[C@@H](C)C/C=C/[C@H]3[C@@H]1O | 9.61 | 11.2 | 9.71 | 10.7 | 12 | 16.1 | 0.968 | 0.954 | 0.865 | 0.715 | 0.722 | 0.667 | 29 | 26.1 | 26.1 | – | – | – | – | – | – | – |
| O=C(O)CSc1cc(NS(=O)(=O)c2ccc(Br)cc2)c2ccccc2c1O | 4.65 | 5.25 | 6.44 | 7.75 | 8.94 | 11.1 | 0.954 | 0.952 | 0.961 | 0.926 | 0.881 | 0.694 | 44 | 35.2 | 25.1 | – | – | – | – | – | – | – |
| CC[C@H](C)[C@@H]1NC(=O)CNC(=O)[C@@H]2Cc3c([nH]c4cc(O)ccc34)S(=O)C[C@H](NC(=O)CNC1=O)C(=O)N[C@@H](CC(=O)O)C(=O)N1C[C@H](O)C[C@H]1C(=O)N[C@@H]([C@@H](C)[C@@H](O)CO)C(=O)N2 (stereo not given in full) | 5.47 | 4.77 | 6.25 | 4.42 | 11.2 | 29.1 | 0.979 | 0.941 | 0.975 | 0.992 | 0.958 | 0.862 | 26.4 | 24.6 | 16.3 | – | – | – | – | – | – | – |
| O=C(CBr)N1CC([N+](=O)[O-])([N+](=O)[O-])C1 | 6.87 | 7.38 | 11.3 | 10.6 | 11.8 | 11.3 | 0.992 | 1.02 | 0.919 | 0.891 | 0.972 | 0.873 | 50 | 49.9 | 42.4 | – | – | – | – | – | – | – |
| O=C(c1ccc(/C=C/c2n[nH]c3ccccc23)cc1)N1CCNCC1 | 9.05 | 12 | 17.9 | 19.2 | 18.8 | 18.8 | 1.02 | 0.914 | 0.649 | 0.572 | 0.532 | 0.526 | 28.9 | 32.6 | 26.8 | – | – | – | – | – | – | – |
| C/C1=C/C(=O)O[C@@H]2C[C@@H](CC[C@H](C)/C=C\CC1)O[C@@](O)([C@@H]1CSC(=O)N1)C2 | 8.28 | 14.2 | 15.4 | 14.9 | 17.7 | 20 | 0.941 | 0.878 | 0.759 | 0.691 | 0.664 | 0.53 | 27.1 | 20.9 | 20.7 | – | – | – | – | – | – | – |
| CC[C@@]1(O)C(=O)OCc2c1cc1n(c2=O)Cc2cc3ccccc3nc2-1 | – | 12.4 ± 0.52 | – | 13.7 ± 0.32 | – | 15.5 ± 0.56 | – | 0.476 ± 0.059 | – | 0.379 ± 0.037 | – | 0.351 ± 0.028 | 19.7 | – | 21.5 | 7.71 ± 3.2 | 9.83 ± 1.2 | 10.3 ± 0.47 | 0.694 ± 0.18 | 0.516 ± 0.026 | 0.503 ± 0.036 | 19.5 |
| C[C@@H]1O[C@@H](O[C@H]2[C@H](OC(=O)[C@]34CCC(C)(C)C[C@H]3C3=CC[C@@H]5[C@@]6(C)C[C@H](O)[C@H](O[C@@H]7O[C@H](CO)[C@@H](O)[C@H](O)[C@H]7O)[C@@](C)(CO)[C@@H]6CC[C@@]5(C)[C@]3(C)CC4)O[C@H](CO)[C@@H](O)[C@@H]2O)[C@H](O)[C@H](O)[C@H]1O[C@@H]1OC[C@@H](O)[C@H](O)[C@H]1O | 4.19 | 4.7 | 5.42 | 5.5 | 6.76 | 3.23 | 0.996 | 0.972 | 0.947 | 0.97 | 0.984 | 0.999 | 52.4 | 46.4 | 51 | – | – | – | – | – | – | – |
| CC(C)[C@H]1OC(=O)[C@H](Cc2ccccc2)N(C)C(=O)[C@@H](C(C)C)OC(=O)[C@H](Cc2ccccc2)N(C)C(=O)[C@@H](C(C)C)OC(=O)[C@H](Cc2ccccc2)N(C)C1=O | 3.92 | 4.9 | 9.63 | 14.2 | 15.5 | 34.1 | 0.976 | 0.957 | 0.981 | 0.73 | 0.439 | 0.0218 | 19.7 | 28.9 | 11.6 | – | – | – | – | – | – | – |
| C[C@@]12C(=O)OC(=O)[C@]1(C)[C@H]1CC[C@@H]2O1 | 13.8 | 14.1 | 13.8 | 13.3 | 13.5 | 9.67 | 0.887 | 0.831 | 0.869 | 0.887 | 0.918 | 0.792 | 32.8 | 33.9 | 19.5 | – | – | – | – | – | – | – |
| CN(N=O)C(=O)N[C@@H]1[C@@H](O)[C@H](O)[C@@H](CO)O[C@@H]1O | 12.4 | 14.8 | 14.4 | 13.9 | 10.4 | 10.8 | 1.04 | 0.929 | 0.893 | 0.893 | 0.88 | 0.851 | 48.1 | 46.7 | 48.1 | – | – | – | – | – | – | – |
| O=NN(CCCl)C(=O)NCCCl | 4.49 | 4.2 | 5.44 | 4.8 | 6.45 | 8.52 | 1.01 | 0.934 | 0.932 | 0.946 | 0.929 | 0.856 | 44.8 | 47.8 | 42.3 | – | – | – | – | – | – | – |
| COC1=C2C[C@@H](C)C[C@H](OC)[C@H](O)[C@@H](C)/C=C(\C)[C@H](OC(N)=O)[C@@H](OC)/C=C\C=C(/C)C(=O)NC(=CC1=O)C2=O | 8.75 | 12.7 | 13 | 14 | 13.3 | 14.5 | 0.954 | 0.911 | 0.867 | 0.759 | 0.663 | 0.619 | 20.3 | 18.8 | 20.8 | – | – | – | – | – | – | – |
| Cc1ccc(C(=O)N(CCCN)[C@@H](c2nc3cc(Cl)ccc3c(=O)n2Cc2ccccc2)C(C)C)cc1 | 11.9 | 10.6 | 13.1 | 13.9 | 28.6 | 17.6 | 0.22 | 0.209 | 0.227 | 0.225 | 0.0173 | 0.0529 | 18.6 | 21.1 | 9.6 | – | – | – | – | – | – | – |

— the supplement of paper PMC10011410
